We go through 3 compounds from patent publication US20250090562A1, “METHODS, COMPOSITIONS AND USES RELATED TO THE TREATMENT AND PREVENTION OF LEIGH’S SYNDROME” (Stealth BioTherapeutics Inc., priority 2023, published 2025).

By EC50 is commonly meant the concentration needed to bring the measured effect to its halfway point.

Common to all, as to type: cell-based, human
The test system of one assay is 15-lipoxygenase (15-LO). The experiment in a line: 15(S)-HETE ELISA following RSL3 treatment, Leigh fibroblasts. Conditions: 700 nM RSL3, 1 μM compound, 24 h. As for the experimental part: Samples for the 15(S)-HETE ELISA were generated by the RSL3 cytoprotection assay described above. Healthy or Leigh fibroblasts were resuspended in assay medium, seeded at 200,000 cells per well in a clear, tissue culture-treated, 24-well plate. Cells were incubated at 37° C. for 24 hours. Supernatant was aspirated from each well following the incubation.
Fibroblasts from both a healthy individual and a patient diagnosed with Leigh syndrome were examined (but not all compounds were examined in each cell type). Activation of ferroptosis has been implicated as a driver of epilepsy, which is commonly associated with Leigh syndrome. […] Kahn-Kirby et al. PLOS One. […] As a key regulator of ferroptosis, 15-LO serves as a rational therapeutic target in Leigh syndrome.
On the technique in general: An ELISA detects its analyte on a solid surface through an enzyme-linked reagent.

For assay [1], the system named is Leigh syndrome (GM03672) fibroblasts. The experiment in a line: RSL3 cytoprotection assay, Leigh fibroblasts. The conditions noted are these: 375 nM RSL3, 10-1000 nM compound, 4 h. On the procedure: (§1) Patient fibroblasts were acquired from Coriell Institute for Medical Research (Camden, NJ, USA). GM03672 is an untransformed fibroblast cell line from a Leigh syndrome patient carrying an unknown mutation. GM08402 is an untransformed fibroblast from an apparently healthy individual. Cells were cultured at 37° C. at 5% CO2 in Eagle's Minimum Essential Medium (MEM, Corning), which was supplemented with Earle's salts and non-essential amino acids, 15% qualified fetal bovine serum, and 1% penicillin/streptomycin ([…]) to yield “Complete MEM.”
(§2) To initiate the RSL3 cytoprotection experiment, Healthy (GM08402) and Leigh syndrome (GM03672) fibroblasts were resuspended in Complete MEM. Cells were seeded at 10,000 cells per well in a clear, tissue cultured-treated, 96-well plate and incubated at 37° C. overnight. Following the incubation, supernatant was manually aspirated, taking care not to disrupt cells. […]. Luminescence units were quantified by GEN5 software on a BioTek SYNERGY neo2 plate reader (LUM filter).
(§3) RSL3 is an inhibitor of the enzyme glutathione peroxidase 4 (GPX4), which decreases lipid peroxides. RSL3 inhibition of GPX4 induces ferroptosis through iron-dependent accumulation of lipid ROS. In this assay, Healthy or Leigh fibroblasts were treated for 4 hours with RSL3 to induce ferroptosis or left untreated. Endogenous ATP levels were measured as an indicator of cellular viability using a commercially available kit (CellTiter-Glo® 2.0 Cell Viability Assay (Promega)).
(§4) […]. […] Briefly, ferroptosis was induced with 1 μM RSL3 in healthy fibroblast cells and 375 nM RSL3 in fibroblasts from a patient with Leigh syndrome.
(§5) A preliminary experiment was performed to determine the effect of RSL3 injury on the fibroblasts of a healthy individual (cell line: GM08402) and the fibroblasts of a patient diagnosed with Leigh syndrome (cell line: GM03672).

The subject of assay [2] is Healthy (GM08402) fibroblasts. The experiment in a line: RSL3 cytoprotection assay, healthy fibroblasts. Conditions: 1 μM RSL3, 10-1000 nM compound, 4 h. As for the experimental part:
as §1, §2, §3, §4, §5

Assay [3] has as its system rotenone-inhibited Complex I. The experiment in a line: Complex I-bypass assay ((CI)-bypass assay), high-resolution respirometry O2 consumption. Conditions: Leigh (GM03672) fibroblasts, 0.5 μM rotenone, oxygen consumption rate; read-out: EC50 value, Complex I by-pass activity. On the procedure: All high-resolution respirometry experiments were conducted using the Oroboros O2k-Fluorespirometer (Oroboros, Innsbruck, Austria). The Oroboros O2k-Fluorespirometer was calibrated daily using the air calibration protocol on DatLab 7.4 (Oroboros, Innsbruck, Austria). Prior to each experiment requiring the fluorescence module, the AmpR calibration protocol from DatLab 7.4 was used to calibrate the fluorescence signal. Initial data analysis, including setting of marks, was performed using DatLab 7.4.
Complex I-bypass activity was assessed using HRR to measure O2 consumption. Briefly, Leigh (GM03672) fibroblasts were harvested with trypsin, pelleted at 300×g centrifugation, and resuspended in prewarmed, complete MEM. Cells were added to each chamber via buffer replacement at a concentration of 1-2 million per mL. The chambers were closed to initiate measurement of O2 consumption. The slope negative signal, which is a derivative of O2 consumption, was allowed to stabilize over the course of several minutes. Using a Hamilton syringe to allow for continuous measurement of O2 consumption, glutamate (10 mM final concentration) and malate (0.1 mM final concentration) were added to the closed chamber through the central capillary of the stopper. The slope negative signal was stabilized for several minutes, and rotenone was added at a final concentration of 0.5 μM. One of Compounds 1 to 4 or Vatiquinone was added at increasing concentrations, allowing for several minutes of stabilization of the slope negative signal between titrations. Marks were set at signal plateaus in between titrations. Values were exported and analyzed using GraphPad Prism 9. […] Responsiveness of cells was confirmed with idebenone.
Statistical analysis was performed using GraphPad Prism 9. Complex I-bypass data were fit using nonlinear sigmoidal 4P fit. RET Assay data were analyzed by 2-way ANOVA using a p-value of 0.05.
The Complex 1-bypass assay ((CI)-bypass Assay) evaluates the capacity of compounds to donate electrons into the electron transport chain (ETC) when Complex I is impaired or otherwise deficient. Normally, electrons feed into the ETC through Complex I. In instances where Complex I is impaired, electrons must enter the ETC downstream of Complex I for oxidative phosphorylation (OXPHOS) to occur. Complex I is composed of 46 subunits, encoded by mitochondrial and nuclear genes. Due to its large size, Complex I mutations are a common cause of ETC dysfunction in mitochondrial diseases. Indeed, mutations in the genes that encode subunits for Complex I are important causes of Leigh and Leigh-like syndrome.
Using this assay, the ability of Compounds 1 to 4 and Vatiquinone to bypass rotenone-inhibited Complex I was determined. Rotenone is a widely used Complex I inhibitor and blocks the transfer of electrons from the iron-sulfur complexes on Complex I to ubiquinone. Thus, when rotenone is introduced to cells underdoing routine respiration, a decrease in oxygen consumption is observed, which is indicative of disrupted OXPHOS. The ability of Compounds 1 to 4 and Vatiquinone to “bypass” Complex I and restore OXPHOS is measured by an increase in oxygen consumption rate following addition of the compound to the chamber.
In executing this assay, in each instance, fibroblasts are added to each chamber of the Oroboros Oxygraph-2K (the “O2k”). The O2k generates two traces: 1) total oxygen consumption over time, 2) the rate of oxygen consumption over time (slope negative). Baseline respiration is established for several minutes by allowing the slope negative to stabilize. Rotenone is introduced to each chamber at a final concentration of 0.5 μM. The addition of rotenone is expected to cause a marked reduction of OXPHOS as measured by a decreased rate of oxygen consumption. Then the test article (i.e., in this case one of Compounds 1 to 4 or Vatiquinone) is added to the chamber. […]

With `CC1=C(C)C(=O)C(CC[C@](C)(O)CCCCCCCCC(F)(F)F)=C(C)C1=O` [Compound 4], the “relative 15-LO inhibition (comparison between test articles)” value (“relative 15-LO inhibition” below) in the assay with 15-lipoxygenase (15-LO) is on record as “roughly equivalent protective effect”. The “relative anti-ferroptosis properties (comparison between test articles)” value (shortened to “relative anti-ferroptosis properties”) in assay [1] and in assay [2] was “roughly equivalent in their anti-ferroptosis properties” throughout. For the same compound, the EC50 in assay [3] was around 8.8 µM.

For the compound `CC1=C(C)C(=O)C(CC[C@@](C)(O)CC/C=C(\C)CCC=C(F)F)=C(C)C1=O` [Compound 2], the “relative 15-LO inhibition” value with 15-lipoxygenase (15-LO) is reported as “roughly equivalent protective effect”. In addition, the “relative anti-ferroptosis properties” value is “superior to Compounds 1, 4 and Vatiquinone” in assay [1]; “superior to Compounds 1, 4 and Vatiquinone” in assay [2]. Also, the EC50 in assay [3] is around 4.09 µM.

Turning to `CC1=C(C)C(=O)C(CC[C@@](C)(O)COCCC[Si](C)(C)C)=C(C)C1=O` [Compound 3], the “relative 15-LO inhibition” value with 15-lipoxygenase (15-LO) is recorded as “roughly equivalent protective effect”. The “relative anti-ferroptosis properties” value in assay [1] is “superior to Compounds 1, 4 and Vatiquinone”; in assay [2], “superior to Compounds 1, 4 and Vatiquinone”. Further, in assay [3], the EC50 is around 3.41 µM.
